How the values were obtained:
[1] = test system: Plasmodium falciparum; experiment: NOVARTIS: Inhibition of Plasmodium falciparum 3D7 (drug-susceptible) proliferation in erythrocyte-based infection assay; type: functional, organism-based; details: Plasmodium falciparum, 3D7
[2] = test system: Plasmodium falciparum; experiment: NOVARTIS: Inhibition of Plasmodium falciparum W2 (drug-resistant) proliferation in erythrocyte-based infection assay; type: functional, organism-based
[3] = NOVARTIS: Cytotoxicity against human hepatocellular carcinoma cell line (Huh7); type: toxicity, cell-based, Huh-7; details: Huh7 cells (hepatocellular carcinoma cell line)
[4] = Plasmodium falciparum, W2, read-out: EC50

With `CC1OC(=O)C(C(C)C)NC(=O)C(C(C)C)OC(=O)C(C(C)C)NC(=O)C(C)OC(=O)C(C(C)C)NC(=O)C(C(C)C)OC(=O)C(C(C)C)NC(=O)C(C)OC(=O)C(C(C)C)NC(=O)C(C(C)C)OC(=O)C(C(C)C)NC1=O` (configuration not stated) the EC50 [1] was 91.6 nM, the EC50 [2, 4] was 11.7 nM and the CC50 [3] was over 10000 nM.

For `CCOc1cc(C2CC(=O)NC3=C2C(=O)CC(c2ccc(OC)cc2)C3)cc(Cl)c1O` (configuration not stated), the EC50 [1] was 612 nM, the EC50 [2, 4] was 285 nM and the CC50 [3] was over 100000 nM.

With `CCOC(=O)NN=C1c2ccccc2-c2nc3nonc3nc21` the EC50 [1] was 1450 nM, the EC50 [2, 4] was 1180 nM and the CC50 [3] was over 10000 nM.

With `N#Cc1nc(-c2ccccc2)c(-c2ccc(-c3nc(C#N)c(C#N)nc3-c3ccccc3)cc2)nc1C#N` the EC50 [1] was 1610 nM, the EC50 [2, 4] was 1160 nM and the CC50 [3] was over 10000 nM.

`CC(=O)N(C1=C(N2CCN(C)CC2)C(=O)c2ccccc2C1=O)c1cc(C)cc(C)c1` showed an EC50 [1] of 67 nM, an EC50 [2, 4] of 61.2 nM and a CC50 [3] of 12600 nM.

In the case of `CCC(C)NC(=O)c1c[nH]c2ccc(S(=O)(=O)N3CCc4ccccc43)cc2c1=O` (configuration not stated), the EC50 [1] is reported as over 1250 nM, the EC50 [2, 4] is reported as 424 nM and the CC50 [3] is reported as over 10000 nM.

`CCOC(=O)c1ccc(OCC2c3cc(OC)c(OC)cc3CCN2C(=O)c2ccc([N+](=O)[O-])cc2)cc1` (configuration not stated) showed an EC50 [1] of over 12500 nM, an EC50 [2, 4] of 1350 nM and a CC50 [3] of over 100000 nM.

In the case of `CCOC(=O)C1=C(C)NC2=C(C(=O)CC(c3ccc(OC)c(OC)c3)C2)C1c1ccc(Cl)c(Cl)c1` (configuration not stated), the EC50 [1] is reported as 229 nM, the EC50 [2, 4] is reported as 105 nM and the CC50 [3] is reported as over 100000 nM.

Molecule `O=C1CN(C(=O)COC(=O)c2ccccc2NCCc2ccc(F)cc2)c2ccccc2N1` has an EC50 [1] of 219 nM, an EC50 [2, 4] of 165 nM and a CC50 [3] of over 10000 nM.

`O=C1Cc2c([nH]c3ccc(OCc4ccccc4)cc23)C2CC=CCC12` (configuration not stated) gave an EC50 [1] of 1590 nM, an EC50 [2, 4] of over 1250 nM and a CC50 [3] of over 10000 nM.

`CC1CN(C2CC(=O)N(c3ccccc3)C2=O)CC(C)O1` (configuration not stated) gave an EC50 [1] of 873 nM, an EC50 [2, 4] of over 195 nM and a CC50 [3] of over 10000 nM.

Molecule `CCOC(=O)c1ccc(NC(=O)c2ccc3nc(NC(=O)c4ccc(C(=O)OC)cc4)sc3c2)cc1` has an EC50 [1] of over 6510 nM, an EC50 [2, 4] of 1800 nM and a CC50 [3] of over 100000 nM.

`CN1CCN(C(=O)c2cccc(-c3nc(-c4ccncc4)cnc3N)c2)CC1` showed an EC50 [1] of over 1000 nM, an EC50 [2, 4] of over 1250 nM and a CC50 [3] of over 10000 nM.

Work on `COc1cc(NC(C)CCCN(Cc2ccccc2OC)C(=O)c2cccc(Br)c2)c2ncccc2c1` (configuration not stated) yielded an EC50 [1] of over 948 nM, an EC50 [2, 4] of 563 nM and a CC50 [3] of over 6430 nM.

In the case of `O=C(C1=C(O)C(=O)N(CCCn2ccnc2)C1c1ccccc1[N+](=O)[O-])c1ccccc1` (configuration not stated), the EC50 [1] is reported as over 12500 nM, the EC50 [2, 4] is reported as 2830 nM and the CC50 [3] is reported as over 100000 nM.

For `CCCOC(=O)C1=C(C)NC2=C(C(=O)CC(c3ccc(OC)c(OC)c3)C2)C1c1ccccc1Br` (configuration not stated), the EC50 [1] was 76.6 nM, the EC50 [2, 4] was 11.2 nM and the CC50 [3] was over 100000 nM.

`Brc1ccc(Nc2nc(NCc3ccco3)c3ccccc3n2)cc1` gave an EC50 [1] of 196 nM, an EC50 [2, 4] of 192 nM and a CC50 [3] of 7150 nM.

`Clc1ccc(-c2c[n+](Cc3ccc(Cl)c(Cl)c3)c3n2CCC3)cc1` gave an EC50 [1] of 446 nM, an EC50 [2, 4] of 623 nM and a CC50 [3] of over 93600 nM.

Work on `c1ccc(Cn2c(N=NNc3nc4ccccc4n3Cc3ccccc3)nc3ccccc32)cc1` yielded an EC50 [1] of 85.4 nM, an EC50 [2, 4] of 81.9 nM and a CC50 [3] of 19200 nM.

For `Cc1c(Cl)cccc1N1C(=O)C2C3c4ccccc4C(c4ccccc43)C2C1=O` (configuration not stated), the EC50 [1] was over 1610 nM, the EC50 [2, 4] was 686 nM and the CC50 [3] was over 10000 nM.

In the case of `c1ccc2c(NCCc3c[nH]cn3)c3ccccc3nc2c1`, the EC50 [1] is reported as 1730 nM, the EC50 [2, 4] is reported as 2460 nM and the CC50 [3] is reported as 23300 nM.

In the case of `COC(=O)c1ccccc1NC(=O)CSc1nc2ccsc2c(=O)n1CCN1CCCC1`, the EC50 [1] is reported as over 11200 nM, the EC50 [2, 4] is reported as over 11200 nM and the CC50 [3] is reported as over 100000 nM.

Work on `CC1CCN(c2nncc3ccccc23)CC1` yielded an EC50 [1] of over 12500 nM, an EC50 [2, 4] of over 6050 nM and a CC50 [3] of over 100000 nM.

`CCC1=NN2C(=N)/C(=C/c3cn(CCOc4cccc(C)c4)c4ccccc34)C(=O)N=C2S1` gave an EC50 [1] of over 1250 nM, an EC50 [2, 4] of over 572 nM and a CC50 [3] of over 10000 nM.

`COc1ccc(CCNc2nc(NCCCN3CCCCC3C)ncc2C(=O)NCC(C)C)cc1OC` (configuration not stated) gave an EC50 [1] of 1160 nM, an EC50 [2, 4] of over 706 nM and a CC50 [3] of over 10000 nM.

Work on `COc1ccc(-c2nc(NC(=O)CS(=O)(=O)c3ccccc3)sc2C)cc1` yielded an EC50 [1] of 505 nM, an EC50 [2, 4] of 2300 nM and a CC50 [3] of over 100000 nM.

`COc1ccc2c(c1)OC(O)(C(F)(F)C(F)(F)F)CC2=O` (configuration not stated) gave an EC50 [1] of 442 nM, an EC50 [2, 4] of 1000 nM and a CC50 [3] of 49700 nM.

With `FC(F)(F)c1cccc(Nc2nnnc3ccccc23)c1` the EC50 [1] was 756 nM, the EC50 [2, 4] was 433 nM and the CC50 [3] was over 10000 nM.

For `CCOC(=O)C1=C(C)NC2=C(C(=O)CC(c3ccc(Cl)cc3)C2)C1c1ccc(Br)cc1` (configuration not stated), the EC50 [1] was 378 nM, the EC50 [2, 4] was 116 nM and the CC50 [3] was over 100000 nM.

For `CCOC(=O)C1=C(c2ccccc2)N=c2sc(=Cc3cc(OC)c(OC)c(OC)c3)c(=O)n2C1c1c(OC)ccc2ccccc12` (configuration not stated), the EC50 [1] was over 7820 nM, the EC50 [2] was “No fit” and the CC50 [3] was over 100000 nM.

With `Cc1cc(C)c(S(=O)(=O)N2CCC(NC(=O)c3ccccc3)CC2)c(C)c1` the EC50 [1] was 1070 nM, the EC50 [2] was “No fit” and the CC50 [3] was over 100000 nM.

`CCOC(=O)c1sc(-c2cnccc2C(F)(F)F)nc1C` gave an EC50 [1] of over 912 nM, an EC50 [2, 4] of 172 nM and a CC50 [3] of over 10000 nM.

Molecule `COC(=O)[C@@H]1C[C@@H](NC(=O)c2ccc(OC)cc2OC)CN1Cc1ccc(C(F)(F)F)cc1` has an EC50 [1] of 347 nM, an EC50 [2, 4] of 159 nM and a CC50 [3] of over 100000 nM.

`COC(=O)C1=C(C)NC2=C(C(=O)CC(C)(C)C2)C1c1ccc(C)o1` (configuration not stated) showed an EC50 [1] of 1580 nM, an EC50 [2, 4] of 638 nM and a CC50 [3] of over 100000 nM.

With `NCCCCCCNc1ccnc2cc(Cl)ccc12` the EC50 [1] was 288 nM, the EC50 [2, 4] was 132 nM and the CC50 [3] was over 10000 nM.

Molecule `CO/C(=C\C(N)=O)C(C)C(/C=C/c1csc(-c2csc(C(C)/C=C/C=C/C(C)C)n2)n1)OC` (configuration not stated) has an EC50 [1] of 1240 nM, an EC50 [2, 4] of 84.6 nM and a CC50 [3] of over 10000 nM.

`CN(C)CCNc1ncnc2c1[nH]c1ccc(Br)cc12` gave an EC50 [1] of 100 nM, an EC50 [2, 4] of 476 nM and a CC50 [3] of 21100 nM.

`CCc1cc2c(Sc3nnc(N)s3)ncnc2s1` showed an EC50 [1] of 546 nM, an EC50 [2, 4] of 540 nM and a CC50 [3] of over 10000 nM.

Work on `CCOc1ccc2[nH]c3c(NCCCN(C)C)ncnc3c2c1` yielded an EC50 [1] of 203 nM, an EC50 [2, 4] of 778 nM and a CC50 [3] of 26600 nM.

With `CCCNC(=O)CCCCCSc1nc2ccccc2c(=O)n1-c1ccc(F)cc1` the EC50 [1] was 780 nM, the EC50 [2, 4] was over 1180 nM and the CC50 [3] was over 11500 nM.

In the case of `OCCN1CCN(c2cc(-c3cccnc3)nc(-c3ccncc3)n2)CC1`, the EC50 [1] is reported as 945 nM, the EC50 [2, 4] is reported as 626 nM and the CC50 [3] is reported as over 10000 nM.

For `O=C(NCCCCNc1ccnc2cc(Cl)ccc12)c1cc(C(F)(F)F)cc(C(F)(F)F)c1`, the EC50 [1] was 642 nM, the EC50 [2, 4] was 766 nM and the CC50 [3] was over 10000 nM.

`N[C@@H](COP(=O)(O)O)C(=O)O` [DEXFOSFOSERINE] showed an EC50 [1] of 1080 nM, an EC50 [2, 4] of over 1060 nM and a CC50 [3] of over 10000 nM.

Molecule `c1ccc(-c2nn(-c3ccccc3)[n+](-c3cccc4ccccc34)n2)cc1` has an EC50 [1] of over 417 nM, an EC50 [2, 4] of 131 nM and a CC50 [3] of over 10000 nM.

Work on `O=c1nc(C=Cc2ccc(Cl)cc2)oc2ccccc12` yielded an EC50 [1] of 1100 nM, an EC50 [2, 4] of 1060 nM and a CC50 [3] of over 100000 nM.

Work on `C=CCn1cc(C=NNc2nc3ccccc3[nH]2)c2ccccc21` yielded an EC50 [1] of 91.3 nM, an EC50 [2, 4] of 220 nM and a CC50 [3] of 18400 nM.

Work on `C=CC1(C)CC23CC(C(OC(=O)c4ccccc4)c4ccnc5ccccc45)N2CCC13` (configuration not stated) yielded an EC50 [1] of 176 nM, an EC50 [2, 4] of 938 nM and a CC50 [3] of 29200 nM.

In the case of `Cc1cc(C)[n+]2nc(N)c3ccccc3c2n1.[O-][Cl+3]([O-])([O-])[O-]`, the EC50 [1] is reported as 248 nM, the EC50 [2, 4] is reported as 193 nM and the CC50 [3] is reported as over 10000 nM.

Molecule `O=C(NCc1c(Cl)cccc1Sc1ccc(Cl)cc1)c1ccc2c(c1)CCO2` has an EC50 [1] of 69.1 nM, an EC50 [2, 4] of 56.2 nM and a CC50 [3] of over 10000 nM.

From ChEMBL document CHEMBL1156829 (Proc Natl Acad Sci U S A, 2008)
